This assay addresses T1, TbNMT (Trypanosoma brucei, UniProt Q388H8).
T1 construct: gene Tb10.61.2550; native full-length enzyme in intact bloodstream form parasites; not purified
T1 sequence (Q388H8 1-446): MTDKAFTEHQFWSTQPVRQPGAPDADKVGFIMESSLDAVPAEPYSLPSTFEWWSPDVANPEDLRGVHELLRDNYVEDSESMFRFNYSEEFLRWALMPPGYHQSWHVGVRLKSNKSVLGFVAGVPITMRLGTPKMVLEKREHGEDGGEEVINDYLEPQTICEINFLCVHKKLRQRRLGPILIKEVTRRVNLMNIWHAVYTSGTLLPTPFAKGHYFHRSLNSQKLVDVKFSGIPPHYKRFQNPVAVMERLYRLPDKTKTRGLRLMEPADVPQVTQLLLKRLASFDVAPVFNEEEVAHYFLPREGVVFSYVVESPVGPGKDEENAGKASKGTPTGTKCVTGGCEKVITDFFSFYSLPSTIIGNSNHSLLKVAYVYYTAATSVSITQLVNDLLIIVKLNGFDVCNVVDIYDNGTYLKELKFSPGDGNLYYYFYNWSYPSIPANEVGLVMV
Put plainly: in-gel fluorescence of YnMyr tagging (CuAAC, NaOH-treated gels) in intact BSF parasites. It counts as cell-based. Conditions: read-out: TC50 (tagging-IC50); 100 uM YnMyr, 1 h inhibitor pretreatment, 8 h labelling, 37 °C; whole-parasite value, not isolated enzyme.

As usually defined, the IC50 is the concentration needed to halve the response being measured.

As to `Cc1noc(C)c1NS(=O)(=O)c1c(Cl)cc(-c2ccnc(N3CCNCC3)c2)cc1Cl` [compound 2, inhibitor 2], the IC50 is 2570 ± 40 nM.

These data come from PMC4906374, “Global Profiling and Inhibition of Protein Lipidation in Vector and Host Stages of the Sleeping Sickness Parasite Trypanosoma brucei” (ACS Infectious Diseases, 2016).
